Assay results as given in patent publication US20070049564A1 (Wyeth, priority 2005, published 2007).
≈ marks a conversion by molar mass, not a printed value. Read-outs that look alike come from different tables or passages of the source.

How the values were obtained:
[1] = tested on: S. aureus GC 1131; experiment: MIC, broth microdilution; settings: Staphylococcus aureus
[2] = tested on: S. pneumoniae+ GC 4465; experiment: MIC, broth microdilution; settings: Streptococcus pneumoniae
[3] = tested on: E. coli GC 2234; experiment: MIC, broth microdilution; settings: Escherichia coli
[4] = tested on: S. aureus GC 1079; experiment: MIC, broth microdilution; settings: Staphylococcus aureus
[5] = tested on: S. aureus GC 6469; experiment: MIC, broth microdilution; settings: Staphylococcus aureus
[6] = tested on: E. coli GC 2233; experiment: MIC, broth microdilution; settings: Escherichia coli
[7] = tested on: E. faecalis GC 4555; experiment: MIC, broth microdilution; settings: Enterococcus faecalis
[8] = tested on: E. faecium GC 2243; experiment: MIC, broth microdilution; settings: Enterococcus faecium
[9] = tested on: Staph.; experiment: Range of MIC for Staph. strains, including MRSA; settings: Staphylococcus aureus, MRSA
[10] = tested on: S. aureus GC 6466; experiment: MIC, broth microdilution; settings: Staphylococcus aureus
[11] = tested on: E. coli GC 6465; experiment: MIC, broth microdilution; settings: Escherichia coli
[12] = tested on: c. albicans GC 3066; experiment: MIC, broth microdilution
[13] = tested on: E. coli GC 2236; experiment: MIC, broth microdilution; settings: Escherichia coli
[14] = tested on: E. coli; experiment: Range of MIC for E. coli strains; settings: Escherichia coli
[15] = tested on: S. pyogenes GC 4563; experiment: MIC, broth microdilution; settings: Streptococcus pyogenes
[16] = tested on: E. coli GC 1073; experiment: MIC, broth microdilution; settings: Escherichia coli
[17] = tested on: S. aureus GC 4536; experiment: MIC, broth microdilution; settings: Staphylococcus aureus
[18] = tested on: E. faecalis GC 2265; experiment: MIC, broth microdilution; settings: Enterococcus faecalis
[19] = tested on: E. coli GC 2272; experiment: MIC, broth microdilution; settings: Escherichia coli
[20] = tested on: S. epidermidis GC 4935; experiment: MIC, broth microdilution; settings: Staphylococcus epidermidis

MIC ([1]; GC1131, read-out: MINIMAL INHIBITORY CONCENTRATION MIC, pre-incubated in Mouse Serum): 0.5 µg/mL (≈ 0.643 µM)
MIC ([1]; GC1131, read-out: MINIMAL INHIBITORY CONCENTRATION MIC, pre-incubated in Water): 0.5 µg/mL (≈ 0.643 µM)
MIC ([2]; read-out: MINIMAL INHIBITORY CONCENTRATION MIC, pre-incubated in Mouse Serum): 4 µg/mL (≈ 5.14 µM)
MIC ([2]; read-out: MINIMAL INHIBITORY CONCENTRATION MIC, pre-incubated in Water): 4 µg/mL (≈ 5.14 µM)
MIC ([3]; GC2234, read-out: MINIMAL INHIBITORY CONCENTRATION MIC, pre-incubated in Mouse Serum): 1 µg/mL (≈ 1.29 µM)
MIC ([3]; GC2234, read-out: MINIMAL INHIBITORY CONCENTRATION MIC, pre-incubated in Water): > 64 µg/mL
MIC ([4]; GC1079, read-out: MINIMAL INHIBITORY CONCENTRATION MIC, pre-incubated in Mouse Serum): 1 µg/mL (≈ 1.29 µM)
MIC ([4]; GC1079, read-out: MINIMAL INHIBITORY CONCENTRATION MIC, pre-incubated in Water): 2 µg/mL (≈ 2.57 µM)
MIC ([5]; GC6469, read-out: MINIMAL INHIBITORY CONCENTRATION MIC, pre-incubated in Mouse Serum): 1 µg/mL (≈ 1.29 µM)
MIC ([5]; GC6469, read-out: MINIMAL INHIBITORY CONCENTRATION MIC, pre-incubated in Water): 2 µg/mL (≈ 2.57 µM)
MIC ([6]; GC2233, read-out: MINIMAL INHIBITORY CONCENTRATION MIC, pre-incubated in Mouse Serum): 2 µg/mL (≈ 2.57 µM)
MIC ([6]; GC2233, read-out: MINIMAL INHIBITORY CONCENTRATION MIC, pre-incubated in Water): > 64 µg/mL
MIC ([7]; GC4555, read-out: MINIMAL INHIBITORY CONCENTRATION MIC, pre-incubated in Mouse Serum): 1 µg/mL (≈ 1.29 µM)
MIC ([7]; GC4555, read-out: MINIMAL INHIBITORY CONCENTRATION MIC, pre-incubated in Water): 4 µg/mL (≈ 5.14 µM)
MIC ([8]; GC2243, read-out: MINIMAL INHIBITORY CONCENTRATION MIC, pre-incubated in Mouse Serum): 1 µg/mL (≈ 1.29 µM)
MIC ([8]; GC2243, read-out: MINIMAL INHIBITORY CONCENTRATION MIC, pre-incubated in Water): 2 µg/mL (≈ 2.57 µM)
MIC ([9]; read-out: Range of MIC, Staph (Mouse Serum)): 0.25 to 1 µg/mL (≈ 0.321 to 1.29 µM)
MIC ([9]; read-out: Range of MIC, Staph (Water)): 0.25 to 4 µg/mL (≈ 0.321 to 5.14 µM)
MIC ([9]; read-out: Range of MIC, Staph. (mouse serum)): 0.25 to 1 µg/mL (≈ 0.321 to 1.29 µM)
MIC ([9]; read-out: Range of MIC, Staph. (water)): 0.25 to 4 µg/mL (≈ 0.321 to 5.14 µM)
MIC ([10]; GC6466, read-out: MINIMAL INHIBITORY CONCENTRATION MIC, pre-incubated in Mouse Serum): 0.25 µg/mL (≈ 0.321 µM)
MIC ([10]; GC6466, read-out: MINIMAL INHIBITORY CONCENTRATION MIC, pre-incubated in Water): 0.25 µg/mL (≈ 0.321 µM)
MIC ([11]; GC6465, read-out: MINIMAL INHIBITORY CONCENTRATION MIC, pre-incubated in Mouse Serum): 8 µg/mL (≈ 10.3 µM)
MIC ([11]; GC6465, read-out: MINIMAL INHIBITORY CONCENTRATION MIC, pre-incubated in Water): > 64 µg/mL
MIC ([12]; Candida albicans, GC3066, read-out: MINIMAL INHIBITORY CONCENTRATION MIC): > 64 µg/mL
MINIMAL INHIBITORY CONCENTRATION MIC ([12]; pre-incubated in Water): >64 UG/ML
MIC ([13]; GC2236, read-out: MINIMAL INHIBITORY CONCENTRATION MIC, pre-incubated in Mouse Serum): 2 µg/mL (≈ 2.57 µM)
MIC ([13]; GC2236, read-out: MINIMAL INHIBITORY CONCENTRATION MIC, pre-incubated in Water): > 64 µg/mL
MIC ([14]; 20 h, read-out: Range of MIC, E. coli (Mouse Serum)): 1 to 4 µg/mL (≈ 1.29 to 5.14 µM)
MIC ([14]; read-out: Range of MIC, E. coli (mouse serum)): 1 to 4 µg/mL (≈ 1.29 to 5.14 µM)
MIC ([15]; GC4563, read-out: MINIMAL INHIBITORY CONCENTRATION MIC, pre-incubated in Mouse Serum): 0.25 µg/mL (≈ 0.321 µM)
MIC ([15]; GC4563, read-out: MINIMAL INHIBITORY CONCENTRATION MIC, pre-incubated in Water): 0.25 µg/mL (≈ 0.321 µM)
MIC ([16]; GC1073, read-out: MINIMAL INHIBITORY CONCENTRATION MIC, pre-incubated in Mouse Serum): 2 µg/mL (≈ 2.57 µM)
MIC ([16]; GC1073, read-out: MINIMAL INHIBITORY CONCENTRATION MIC, pre-incubated in Water): > 64 µg/mL
MIC ([17]; GC4536, read-out: MINIMAL INHIBITORY CONCENTRATION MIC, pre-incubated in Mouse Serum): 0.25 µg/mL (≈ 0.321 µM)
MIC ([17]; GC4536, read-out: MINIMAL INHIBITORY CONCENTRATION MIC, pre-incubated in Water): 0.5 µg/mL (≈ 0.643 µM)
MIC ([18]; GC2265, read-out: MINIMAL INHIBITORY CONCENTRATION MIC, pre-incubated in Mouse Serum): 2 µg/mL (≈ 2.57 µM)
MIC ([18]; GC2265, read-out: MINIMAL INHIBITORY CONCENTRATION MIC, pre-incubated in Water): 8 µg/mL (≈ 10.3 µM)
MIC ([19]; GC2272, read-out: MINIMAL INHIBITORY CONCENTRATION MIC, pre-incubated in Mouse Serum): 2 µg/mL (≈ 2.57 µM)
MIC ([19]; GC2272, read-out: MINIMAL INHIBITORY CONCENTRATION MIC, pre-incubated in Water): 64 µg/mL (≈ 82.3 µM)
MIC ([20]; GC4935, read-out: MINIMAL INHIBITORY CONCENTRATION MIC, pre-incubated in Mouse Serum): 1 µg/mL (≈ 1.29 µM)
MIC ([20]; GC4935, read-out: MINIMAL INHIBITORY CONCENTRATION MIC, pre-incubated in Water): 2 µg/mL (≈ 2.57 µM)
SMILES: CCCN(CC(=O)Nc1cc(N(C)C)c2c(c1O)C(=O)C1=C(O)[C@]3(O)C(=O)C(C(N)=O)=C(O)[C@@H](N(C)C)[C@@H]3C[C@@H]1C2)C(=O)OCOC(=O)c1cc(C)cc(C)c1 [Example 26, ({[(2-{[(5aR,6aS,7S,10aS)-9-(aminocarbonyl)-4,7-bis(dimethylamino)-1,8,10a,11-tetrahydroxy-10,12-dioxo-5,5a,6,6a,7,10,10a,12-octahydrotetracen-2-yl]amino}-2-oxoethyl)(propyl)amino]carbonyl}oxy)methyl 3,5-dimethylbenzoate]
